Data reported in patent publication US8088951B2, “Epigenetic mechanisms re-establish access to long-term memory after neuronal loss” (Massachusetts Institute of Technology, priority 2006, dated 2012).
Entries after “also recorded” stand apart in the source; their conditions may differ.

Legend:
Assay type in all cases: in vivo
C57BL/6J mice = assay: Water maze paradigm (spatial learning) in wild type mice; conditions: daily ip for 4 weeks; vs vehicle group; P<0.0001
Source text: (§1) Learning tests: All behavioral testing is described in Fischer et al. (3).
Mechanism underlying EE. Other than a few genes involved in synaptic function, relatively little is known about the mechanism underlying EE (12-14). Since histone acetylation, an epigenetic mechanism regulating gene expression via chromatin remodeling, has recently been implicated in synaptic plasticity and learning behavior (15-18), the induction of a transcriptional program by EE that leads to activation of plasticity genes was evaluated. Wild type mice were subjected to EE and hippocampal and cortical brain lysates were obtained 3, 24 h or 2 weeks later (n=3/group) by acid extraction and probed with antibodies detecting histone-tail modification that indicate active chromatin. Increases in hippocampal H3 (K-9, K14) and H4 (K-5) and in cortical H3 (K-9) and H4 (K-5) acetylation were observed. […] No changes in H4 acetylation were observed when the Ac-H4 (K,8,12,16) antibody was used, which is likely due to the fact that H4-K16 is a marker of condensed chromatin. EE induced hippocampal and cortical histone 3 (H3) and histone 4 (H4) acetylation and methylation as soon as 3 hours after treatment (FIGS. 3a, b). […]
The over expression of HDAC2 impairs spatial learning. […] The swimming path of the mice was recorded by a video camera and analyzed by the Videomot 2 software (TSE). […]

H3 and H4 acetylation = assay: Histone acetylation in hippocampal lysates of wild type mice (immunoblot); conditions: daily ip for 4 weeks
Method: Immunoblotting and staining: Lysates for immunoblotting were prepared as described by Fischer et al. (3). To isolate histones, brain tissue was homogenized in TX-buffer (50 mM Tris HCL, 150 mM NACL, 2 mM EDTA, 1% Triton-100) and incubated at 4° C. for 15 min prior to centrifugation at 200 rpm for 10 min. After a wash-step in TX-buffer the pellet was dissolved in TX-buffer containing 0.2M HCl and incubated on ice for 30 min, before a second centrifugation at 10000 rpm for 10 min. The supernatant was either dialysed or directly used for immunoblotting. Antibodies were used in 1:1000 concentrations. All antibodies detecting histones and anti-PSD-95 were form Upstate (Lake Placid, N.Y.). Anti-synaptophysin (SVP38) was from Sigma. Anti-neuronal nuclei (neuN) and anti-growth associated protein (Gap43) were from Chemicon (Temecula, Calif.) and anti-N-cadherin, anti-β-catenin were from Santa Cruz (Santa Cruz, Calif.). Immunostaining was performed as described by Fischer et al. (3). Antibodies mentioned above were used in a 1:500 dilution. […]
Mechanism underlying EE. […] Since histone acetylation, an epigenetic mechanism regulating gene expression via chromatin remodeling, has recently been implicated in synaptic plasticity and learning behavior (15-18), the induction of a transcriptional program by EE that leads to activation of plasticity genes was evaluated. […]

[1] = test system: MAP-2, synaptophysin (SVP), synaptic and dendritic marker proteins; assay: Synaptic and dendritic markers in hippocampus of wild type mice (immunostaining, immunoblot); conditions: wild type mice injected for 4 weeks
Method: Immunoblotting and staining: Lysates for immunoblotting were prepared as described by Fischer et al. (3). To isolate histones, brain tissue was homogenized in TX-buffer (50 mM Tris HCL, 150 mM NACL, 2 mM EDTA, 1% Triton-100) and incubated at 4° C. for 15 min prior to centrifugation at 200 rpm for 10 min. After a wash-step in TX-buffer the pellet was dissolved in TX-buffer containing 0.2M HCl and incubated on ice for 30 min, before a second centrifugation at 10000 rpm for 10 min. The supernatant was either dialysed or directly used for immunoblotting. Antibodies were used in 1:1000 concentrations. All antibodies detecting histones and anti-PSD-95 were form Upstate (Lake Placid, N.Y.). Anti-synaptophysin (SVP38) was from Sigma. Anti-neuronal nuclei (neuN) and anti-growth associated protein (Gap43) were from Chemicon (Temecula, Calif.) and anti-N-cadherin, anti-β-catenin were from Santa Cruz (Santa Cruz, Calif.). Immunostaining was performed as described by Fischer et al. (3). Antibodies mentioned above were used in a 1:500 dilution. Anti-MAP-2 antibody (Sigma) was used in a 1:200 dilution.
LSMeta10 software (Zeiss; Jena, Germany) was used to calculate the mean SVP intensity. Brain sections with the strongest intensity were scanned first. All other images included in the analysis where scanned using the same microscope setting. […] Scale bar: 20 μm. py, pyramidal cell layer (FIG. 1g).
The effect of sodiumbutyrate injection on learning, basal anxiety, explorative behavior and brain plasticity. C57BL/6J mice were subjected to fear conditioning and injected intraperitoneally [ip] with 1.2 g/kg sodiumbutyrate (SB, n=8) or saline (vehicle; n=8) immediately afterwards. […] C57BL/6J mice were implanted with microcannulae into the lateral brain ventricles (icv) and injected with either 100 ng SB, 50 ng TSA or vehicle immediately after fear conditioning (n=8/group). […] Immunoblots were quantified relative to the optical density of the vehicle-group (set to 1). […]

CK-p25 Tg mice [2] = assay: Water maze learning in CK-p25 Tg mice after neurodegeneration; conditions: 6 weeks p25 induction, then daily 1.2 g/kg for 4 weeks, vs vehicle, P<0.0001
Source text: as §1
Reinstatement of learning behavior through inhibition of HDAC. Whether sustained inhibition of HDACs would reinstate learning behavior and recover access to long-term memories in CK-p25 Tg mice that had developed synaptic and neuronal loss was investigated. P25 was induced in 11 month old CK-p25 Tg mice for 6 weeks. Afterwards p25 expression was repressed and one group of CK-p25 Tg mice was subjected to daily sodiumbutyrate (SB) injection (1.2 g/kg) for 4 weeks (n=9), whereas the other group received saline injection (n=9). […] To this end p25 expression was induced in 11-month old CK-p25 mice for 6 weeks, before one group was injected daily for 4 weeks with SB whereas the control group received saline injection (FIG. 4a).

CK-p25 Tg mice [3] = assay: Recovery of long-term fear memories in CK-p25 Tg mice; conditions: CK-p25 Tg mice trained, 4 weeks rest, 6 weeks p25, then 1.2 g/kg daily for 4 weeks; P=0.0496
Method: The effect of HDAC inhibition on the recovery of inaccessible long-term memories was evaluated. Eleven month old CK-p25 Tg mice were trained in the fear conditioning paradigm and returned to their home cages for 4 weeks. Subsequently p25 was induced for 6 weeks before the mice were injected with either saline (vehicle, n=12) or SB (1.2 g/kg, n=14) for 4 weeks (daily). […] (FIG. 4f). […] Thus chronic injection of SB led to the recovery of memories in CK-p25 Tg mice that had developed severe neuronal loss.

CCCC(=O)[O-].[Na+] [SB, sodiumbutyrate]
escape latency in water maze paradigm (C57BL/6J mice): shorter escape latency
H3- and H4 acetylation in the hippocampus (H3 and H4 acetylation): robust increase
levels of synaptic and dendritic marker proteins (markers for brain plasticity), hippocampal lysates ([1]; immunoblots relative to vehicle): elevated levels; also recorded: Several markers for brain plasticity were increased
hippocampal MAP-2 immunoreactivity (IR) ([1]; vs vehicle): increased MAP-2 immunoreactivity (IR)
hippocampal synaptophysin (SVP) IR ([1]; vs vehicle): increased SVP IR
spatial learning (escape latency) (CK-p25 Tg mice [2]): significantly shorter escape latency
freezing behavior in long-term memory test (CK-p25 Tg mice [3]): performed significantly better than vehicle injected CK-p25 Tg mice
